The results in this text go back to ChEMBL document CHEMBL1134918, “General solid-phase method to prepare novel cyclic ketone inhibitors of the cysteine protease cruzain” (Bioorg Med Chem Lett, 2002).

The structures appear in SMILES notation.

One assay has as its target Procathepsin L (Homo sapiens, UniProt P07711). Put plainly: Affinity for human Cathepsin L.
A further assay concerns the target Cathepsin B (Homo sapiens, UniProt P07858). Put plainly: Affinity for human Cathepsin B.
The target of a further assay is Cruzipain (Trypanosoma cruzi, UniProt P25779). Put plainly: Affinity for cysteine protease (Cruzipain) of Chagas' disease.
Cruzipain, sequence (P25779 whole entry): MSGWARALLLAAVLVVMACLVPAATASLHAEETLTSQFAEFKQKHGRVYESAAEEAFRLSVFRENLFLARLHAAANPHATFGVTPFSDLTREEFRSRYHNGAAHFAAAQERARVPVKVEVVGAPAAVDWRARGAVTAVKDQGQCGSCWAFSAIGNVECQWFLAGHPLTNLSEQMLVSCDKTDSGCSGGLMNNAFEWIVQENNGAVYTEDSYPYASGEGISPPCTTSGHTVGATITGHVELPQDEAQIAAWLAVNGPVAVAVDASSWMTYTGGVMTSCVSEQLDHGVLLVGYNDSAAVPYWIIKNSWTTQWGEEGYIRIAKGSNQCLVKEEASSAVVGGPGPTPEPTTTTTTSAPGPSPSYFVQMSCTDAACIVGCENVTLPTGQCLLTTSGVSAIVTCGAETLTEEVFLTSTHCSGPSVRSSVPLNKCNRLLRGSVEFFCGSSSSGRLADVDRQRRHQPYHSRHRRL

Procathepsin L, sequence (P07711 whole entry): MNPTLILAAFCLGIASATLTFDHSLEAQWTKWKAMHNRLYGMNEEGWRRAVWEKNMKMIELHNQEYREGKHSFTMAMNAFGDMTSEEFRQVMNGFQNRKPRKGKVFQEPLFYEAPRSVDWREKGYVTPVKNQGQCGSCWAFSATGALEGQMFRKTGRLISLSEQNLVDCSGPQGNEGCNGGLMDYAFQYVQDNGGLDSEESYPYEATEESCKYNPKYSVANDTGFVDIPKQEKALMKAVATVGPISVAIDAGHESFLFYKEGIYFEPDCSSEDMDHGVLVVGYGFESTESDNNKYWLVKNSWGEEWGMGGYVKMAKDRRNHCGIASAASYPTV

With `CC(C)N1CC(=O)C(NC(=O)[C@H](Cc2ccccc2)NC(=O)OCc2ccccc2)CC1=O` (stereo partly specified), the Ki is 597 nM at Procathepsin L, 12900 nM at Cathepsin B and 384 nM at Cruzipain.

On Cathepsin B, `CC(C)C[C@H](NC(=O)OCc1ccccc1)C(=O)NC1CN(C(=O)[C@H](CC(C)C)NC(=O)OCc2ccccc2)CC1=O` (stereo partly specified) came in with a Ki of over 1000 nM.

In the case of `COCCN1CC(=O)C(NC(=O)[C@H](Cc2ccccc2)NC(=O)OCc2ccccc2)CC1=O` (stereo partly specified), the Ki on Procathepsin L is 865 nM; at Cathepsin B it was over 10000 nM; on Cruzipain, 983 nM.

`CCCN1CC(=O)C(NC(=O)[C@H](Cc2ccccc2)NC(=O)OCc2ccccc2)CC1=O` (stereo partly specified): the values for the Ki on Procathepsin L, on Cathepsin B and on Cruzipain were 232 nM, 10500 nM and 366 nM, respectively.

In the case of `CC(C)CN1CC(=O)C(NC(=O)[C@H](Cc2ccccc2)NC(=O)OCc2ccccc2)CC1=O` (stereo partly specified), the results for the Ki at Procathepsin L, on Cathepsin B and on Cruzipain were 299 nM, 4550 nM and 274 nM, respectively.

Consider `CC(C)C[C@@H](C(=O)NCC(=O)CNS(=O)(=O)c1ccc(Oc2ccccc2)cc1)c1cccc(-c2ccccc2)c1`, for which the Ki at Cathepsin B is over 10000 nM.

`O=C(N[C@@H](Cc1ccccc1)C(=O)NC1CC(=O)N(CCc2ccccc2)CC1=O)OCc1ccccc1` (stereo in doubt) gave a Ki at Cruzipain of 53.2 nM.

`O=C(N[C@@H](Cc1ccccc1)C(=O)NC1CC(=O)N(CCCc2ccccc2)CC1=O)OCc1ccccc1` (stereo in doubt): on Cruzipain, the Ki came out at 16.3 nM.

With `O=C(N[C@@H](Cc1ccccc1)C(=O)NC1CC(=O)N(Cc2ccccc2)CC1=O)OCc1ccccc1` (stereo in doubt), the inhibition constant Ki at Cruzipain worked out at 202 nM.

Consider `O=C(N[C@@H](Cc1ccccc1)C(=O)NC1CC(=O)N(CCCc2ccccc2)CC1=O)OCc1ccccc1` (stereo in doubt; 4e), for which the Ki on Procathepsin L worked out at 19 nM; at Cathepsin B it was 693 nM; at Cruzipain, 16 nM.

As for `O=C(N[C@@H](Cc1ccccc1)C(=O)NC1CC(=O)N(CCc2ccccc2)CC1=O)OCc1ccccc1` (stereo in doubt; 4f), the Ki was determined as 93 nM at Procathepsin L, 6170 nM at Cathepsin B and 53 nM on Cruzipain.

Consider `O=C(N[C@@H](Cc1ccccc1)C(=O)NC1CC(=O)N(Cc2ccccc2)CC1=O)OCc1ccccc1` (stereo in doubt; 4g), for which the results for the Ki at Procathepsin L, on Cathepsin B and at Cruzipain were 377 nM, 13200 nM and 202 nM, respectively.

A word on the Ki: it is the equilibrium dissociation constant of an inhibitor or competing ligand from its target. A lower Ki goes with a stronger hold on the target.
